Data published in patent US20240109877A1, “PYRIMIDINES FOR DEGRADING BRUTON'S TYROSINE KINASE” (AbbVie Inc., priority 2022, published 2024).

Key:
[1] = target: Human BTK enzyme, wild-type (Homo sapiens (Human), UniProt Q06187); test: BTK Screening: Btk kinase activity, electrophoretic mobility shift assay (MSA); type: biochemical; details: 0.5 nM BTK enzyme, 50 μM ATP, 15 minutes pre-incubation, 3 hours at 25° C.
Procedure: Btk kinase activity was measured in vitro using an electrophoretic mobility shift assay (MSA). The ability of Btk to phosphorylate a fluorescent peptide substrate (FAM-GEEPLYWSFPAKKK-NH2) was measured. The kinase reactions were assembled in a total volume of 25 μL per well in 384 well plates. The following was added to each well: compound buffer (or control); enzyme buffer; and substrate buffer, as further described below.
Specifically the following was added: (1) compound buffer or control: 5μL of 5× compound buffer [(5× compound buffer comprised of: 1× Master Buffer, X μM test compound in 5% dimethyl sulfoxide; (2× Master Buffer comprised of 200 mM HEPES, pH7.5, 0.2% BSA, and 0.02% Triton X-100)]; and (2) enzyme buffer: 10 μL of 2.5× enzyme buffer (1× Master Buffer, 12.5 mM MgCl2, 2.5 mM DTT, 25 μM sodium orthovanadate, 25 μM beta-glycerophosphate, and 1.25 nM BTK enzyme). Human BTK enzyme Nanosyn-293HEK, wild-type, available from Nanosyn, Santa Clara, CA). Enzyme and compound were pre-incubated for 15 minutes. Additionally, the following was added: (3) substrate buffer: 10 μL of 2.5× substrate buffer (1× Master Buffer, […], and 2.5 μM of the peptide substrate FAM). Each plate was incubated at 25° C. for 3 hours. The reaction was terminated by adding to each well: 45 μL of 1.55× stop buffer (1× Master Buffer and 31 mM EDTA). The final reaction mixture was as follows: 100 mM HEPES, pH7.5; 0.1% BSA; 0.01% Triton X-100; 1 mM DTT; 5 mM MgCl2; 10 μM sodium orthovanadate; 10 μM beta-glycerophosphate; 50 μM ATP; 1% dimethyl sulfoxide (from compound); 1μM fluorescent peptide substrate and 0.5 nM BTK- enzyme. The terminated reactions were analyzed using a 12 channel LABCHIP® 3000 microfluidic detection instrument (available from Caliper Life Sciences, Waltham, MA). […] As substrate and product peptides were separated, two peaks of fluorescence were observed. Change in the relative fluorescence intensity of the substrate and product peaks was the parameter measured, reflecting enzyme activity. In the presence of an active compound, the ratio between product and substrate was altered. The signal of the product decreased, while the signal of the substrate increased. Capillary electrophoregrams (RDA acquisition files) were analyzed using HTS Well Analyzer software (available from Caliper Life Sciences, Waltham, MA).
Activity in each sample was determined as the product to sum ratio (PSR): P/(S+P), where P was the peak height of the product peptide and S was the peak height of the substrate peptide. For each compound, enzyme activity was measured at various concentrations (12 concentrations of compound spaced by 3× dilution intervals). Negative control samples (0% inhibition in the absence of an active compound) and positive control samples (100% inhibition, in the presence of 20 mM EDTA) were assembled in replicates of four and were used to calculate % inhibition values for each active compound at each concentration. Percent inhibition (Pinh) was determined using following equation: Pinh=(PSR0%−PSRinh)/(PSR0%−PSR100%)*100, where PSRinh was the product sum ratio in the presence of inhibitor, PSR0% was the average product sum ratio in the absence of active compound and PSR100% was the average product sum ratio in 100%-inhibition control samples.
The IC50 values of active compounds were determined by 4 parameter sigmoidal dose response model fitting of the inhibition curves (Pinh versus inhibitor concentration) using XLfit® 4 software (IDBS, Boston, MA). The IC50 values are reported in Table 2 in the BTK IC50 (nM) column.

[2] = target: His-tagged Cereblon/DDB1 complex (Homo sapiens (Human), UniProt Q96SW2); test: Cereblon Binding Assay (AlphaLISA Human Cereblon Binding Kit, competition); details: 10 μM top dose, biotin-labeled ligand competition; read-out: CRBN IC50
Procedure: Cereblon binding was measured in vitro using an AlphaLISA® Human Cereblon Binding Kit (PerkinElmer, Waltham, MA) according to the manufacturer's protocol (“Alpha” refers to Amplified Luminescent Proximity Homogeneous Assay). In this assay, donor beads and acceptor beads come into proximity through ligand binding to CRBN protein. Excitation of the donor beads provokes the release of singlet oxygen that triggers a cascade of energy transfer reactions to the acceptor beads, resulting in a sharp peak in light emission at 615 nm.
Specifically, nickel chelate acceptor beads (PerkinElmer AL108M) were used to capture a 6XHIS-tagged CRBN protein, and streptavidin-coated donor beads (PerkinElmer 6760002) were used to capture 50 nM biotinylated ligand. Each well included the following: sample or control; HIS-tagged CRBN protein; biotinylated ligand; nickel chelate acceptor beads; and streptavidin donor beads.
Competition Assay: Test compounds in 100% dimethyl sulfoxide were plated onto white, low volume 384 well plates (PerkinElmer Proxiplate 384 plus # 6008289) using an Labcyte Echo acoustic dispenser, in an 11-point dose curve and 3-fold dilution scheme. […] Plates were incubated for 30 minutes at room temperature.
Detection: 10 μL detection reagents were added in low light conditions containing nickel chelate acceptor beads and streptavidin donor beads (Perkin Elmer 6760002), resulting in a final concentration 20 ng/ml. Plates were incubated 1 hour and read on a PerkinElmerTM Envision™ plate reader (680 nm excitation and […] settings). The IC50 of each compound was determined by calculating percent inhibition from no drug and no protein controls, and the Ki of each compound was calculated using the Cheng-Prusoff transformation. From the IC50 values were determined. The IC50 values are reported in Table 2 in the CRBN IC50 (nM) column.

[3] = target: BTK protein in human whole blood (Homo sapiens (Human), UniProt Q06187); test: Btk protein in human whole blood MSD ELISA based assay (Btk degradation); type: cell-based; details: human whole blood from healthy donors, 6 hours at 37° C., half maximal degradation concentration; read-out: hWB BTK DC50
Procedure: Btk protein degradation was tested using an Meso Scale Discovery-ELISA system (MSD-ELISA): (1) Test compounds were added to human whole blood; (2) human whole blood cells treated with test compounds were lysed; (3) lysed cells were treated with capture antibody, an antibody to Btk; (4) lysed cells were treated with […] to Btk; and (5) lysed cells were treated with anti-mouse antibody (tagged).
Specifically, about 80 μl of fresh human whole blood from healthy donors was transferred into each well of a 96-well V-bottom plate (Costar, Cat No.3894). Using a TECANTM D300e Digital Dispenser (Tecan)), 1:4 serially diluted compounds [(8 pt assay) in DMSO solution (final 0.2%) starting at 3 μM top concentration], were added in duplicate. Thereafter, plates were placed in a 37° C. incubator and incubated for 6 hours.
At the end of incubation, 80 μl of 2× CST lysis buffer (Cell Signaling Technology, Cat No. 9803), prepared from a 10× stock solution, was added per well to lyse the blood. Plates were then sealed with a plate sealer and the samples were frozen overnight at −80° C.
Total amount of BTK protein remaining in the blood samples after compound treatment was measured using MSD-ELISA. After thawing the frozen plates, blood lysates were mixed thoroughly and transferred to small spot high-bind MSD plates (Meso Scale Discovery, Cat No. L45XB-3) and coated with capturing antibody, rabbit anti-human BTK (D3H5) (Cell Signaling Technology, Cat No. 8547CF). Thereafter, primary detection antibody, mouse anti-human BTK monoclonal antibody, (BD Biosciences, Cat No. 611117) and secondary detection antibody, anti-mouse SULFO-TAG (Meso Scale Discovery, Cat No. R32AC-1) were added. The assay plates were read on an MSD S600 plate reader by the addition of 2× MSD read buffer (Meso Scale Discovery, R92TC-1). All reagent transfers, including blood lysis, was conducted using a Biomed i7 liquid handler. From the dose response curves, DC50 values were calculated by averaging data from duplicate experiments. and Curve fitting was done by non-linear regression using GraphPad Prism. The DC50 values are reported in Table 2 in the hWB BTK DC50 (nM) column The Dmax values represent the maximum amount of BTK degradation observed upon compound treatment compared to DMSO only treated samples. The dMax (%) values are reported in Table 2 in the hWB BTK dMax (%) column.

Row | Compound | IC50 [1] | IC50 [2] | DC50 [3]
1 | COC[C@H]1CN(CCc2ccc(N3CCC(=O)NC3=O)cc2)CCN1c1ccc(Nc2cc(-c3ccc([C@@H](C)NC(=O)c4nc(C(C)(C)C)no4)c(C)c3)ncn2)nc1 [Example 15, 3-tert-butyl-N-[(1R)-1-{4-[6-({5-[(2R)-4-{2-[4-(2,4-dioxo-1,3-diazinan-1-yl)phenyl]ethyl}-2-(methoxymethyl)piperazin-1-yl]pyridin-2-yl}amino)pyrimidin-4-yl]-2-methylphenyl}ethyl]-1,2,4-oxadiazole-5-carboxamide] | 0.0986 nM | ≥ 10000 nM | 4.21 nM
2 | C[C@@H](NC(=O)c1nc(C(C)(C)C)no1)c1ccc(-c2cc(Nc3ccc(N4CCN(CCc5ccc(N6CCC(=O)NC6=O)cc5)C[C@@H]4C)cn3)ncn2)cc1C(F)(F)F [Example 16, 3-tert-butyl-N-[(1R)-1-{4-[6-({5-[(2S)-4-{2-[4-(2,4-dioxo-1,3-diazinan-1-yl)phenyl]ethyl}-2-methylpiperazin-1-yl]pyridin-2-yl}amino)pyrimidin-4-yl]-2-(trifluoromethyl)phenyl}ethyl]-1,2,4-oxadiazole-5-carboxamide] | 0.438 nM | ≥ 10000 nM | 14.2 nM
3 | C[C@@H](NC(=O)c1nc(C(C)(C)C)no1)c1ccc(-c2cc(Nc3ccc(N4CCN(CCc5ccc(N6CCC(=O)NC6=O)cc5)C[C@@H]4C)cn3)ncn2)cc1F [Example 17, 3-tert-butyl-N-[(1R)-1-{4-[6-({5-[(2S)-4-{2-[4-(2,4-dioxo-1,3-diazinan-1-yl)phenyl]ethyl}-2-methylpiperazin-1-yl]pyridin-2-yl}amino)pyrimidin-4-yl]-2-fluorophenyl}ethyl]-1,2,4-oxadiazole-5-carboxamide] | 0.103 nM | 3870 nM | 4.13 nM
